The values below come from patent publication US10568834B2, “Delivery systems for propofol” (Yissum Research Development Company of the Hebrew …, priority 2015, dated 2020).

Series [1] in a line: Self-diffusion NMR (SD-NMR). The note with it: for Diffusion coefficient of EtOH / Diffusion coefficient of PEG400 / Diffusion coefficient of PG / Diffusion coefficient of Solutol / Diffusion coefficient of the Loaded specie: B9A loaded with 1 wt % of the specie. It is filed as physicochemical. As for the experimental part:
In order to determine the structure of the oil droplets (or micelles) of the microemulsions, self-diffusion NMR analysis was carried out. SD-NMR is able to locate each component within the microemulsion via measurements of its diffusion coefficient.
NMR measurements were performed with a Bruker AVII 500 spectrometer equipped with GREAT 1/10 gradients, a 5 mm BBO and a 5 mm BBI probe, both with a z-gradient coil and with a maximum gradient strength of 0.509 and 0.544 T m^−1, respectively. Diffusion was measured using an asymmetric bipolar longitudinal eddy-current delay (bpLED) experiment, or and asymmetric bipolar stimulated echo (known as one-shot) experiment with convection compensation and an asymmetry factor of 20%, ramping the strongest gradient from 2% to 95% of maximum strength in 32 steps. The spectrum was processed with the Bruker TOPSPIN software. NMR spectra were recorded at 25±0.2° C. The components were identified by their chemical shift in 1H NMR.

Series [2] can be described thus: Microemulsion formation/appearance with propofol-like species or another surfactant. The series is classed as physicochemical. The settings on record: B9A loaded with 1 wt % of the specie, FIGS. 5A-5D.
Procedure: The relationship between the surfactant and the propofol with respect to binding in the microemulsion-composition was assessed by loading B9A with 1 wt % of species similar in their structure to propofol.
Setting [3] is: B6A microemulsion, Loaded (1 wt % propofol).
The mark [4] stands for this setting: B9A microemulsion, Loaded (1 wt % propofol).
The mark [5] stands for this setting: Formulation with Tween 60, Loaded.
Where [6] appears, read: Formulation with Tween 80, Loaded.
Setting [7] is: Formulation with Tween 60, Unloaded.
[8] abbreviates: Formulation with Tween 80, Unloaded.

With `CC(C)c1cccc(C(C)C)c1N`, in series [1], the “Diffusion coefficient of EtOH” value was 94.6 ×10^−11 m^2/sec, the “Diffusion coefficient of PEG400” value is reported as 26.2 ×10^−11 m^2/sec, the “Diffusion coefficient of PG” value was 44.8 ×10^−11 m^2/sec and the “Diffusion coefficient of Solutol” value is given as 1.76 ×10^−11 m^2/sec. For the same molecule, in series [1], the “Diffusion coefficient of the Loaded specie” value was 2.15 ×10^−11 m^2/sec.

Consider `CC(C)c1ccc(O)c(C(C)C)c1` [2,4-isomer], for which the “Appearance of the system loaded with the specie” value (“Appearance of the system loaded” for short) in series [2] is recorded as “not completely transparent”.

`COc1ccc(O)c(C(C)(C)C)c1` [BHA]: the “Appearance of the system loaded” value in series [2] is given as “not completely transparent”.

`Cc1cc(C(C)(C)C)c(O)c(C(C)(C)C)c1` [BHT]: the “Appearance of the system loaded” value in series [2] is reported as “not completely transparent”.

For `CCO` [Ethanol, ethanol], the “Diffusion coefficient of the component” value is 6.91 × 10^−10 m^2/sec in series [1] (setting [3]); 8.83 × 10^−10 m^2/sec in series [1] (B6A microemulsion, Unloaded); 9.82 × 10^−10 m^2/sec in series [1] (setting [4]); 7.65 × 10^−10 m^2/sec in series [1] (B9A microemulsion, Unloaded).

`CC(C)c1cccc(C(C)C)c1O` [Propofol, 2,6-diisopropyl phenol]: the “Diffusion coefficient of the component” value in series [1] (setting [3]) was 1.02 × 10^−11 m^2/sec. In series [1], the “Diffusion coefficient of EtOH” value was 98.2 ×10^−11 m^2/sec, the “Diffusion coefficient of PEG400” value is recorded as 26.3 ×10^−11 m^2/sec, the “Diffusion coefficient of PG” value is listed as 84.5 ×10^−11 m^2/sec and the “Diffusion coefficient of Solutol” value is on record as 1.50 ×10^−11 m^2/sec. Besides, the “Diffusion coefficient of the Loaded specie” value in series [1] was 1.54 ×10^−11 m^2/sec. Also, the “Diffusion coefficient of the component” value in series [1] (setting [4]) is given as 1.54 × 10^−11 m^2/sec. In addition, the “Diffusion coefficient of the component” value in series [1] (setting [5]) is on record as 1.04 × 10^−11 m^2/sec. Moreover, the “Diffusion coefficient of the component” value in series [1] (setting [6]) was 1.73 × 10^−11 m^2/sec.

For `CC(O)CO` (stereo not shown) [Propylene glycol, propylene glycol], the “Diffusion coefficient of the component” value in series [1] (setting [3]) is reported as 5.22 × 10^−10 m^2/sec; in series [1] (B6A microemulsion, Unloaded), 6.68 × 10^−10 m^2/sec; in series [1] (setting [4]), 8.45 × 10^−10 m^2/sec; in series [1] (B9A microemulsion, Unloaded) it was 5.96 × 10^−10 m^2/sec; in series [1] (setting [5]), 3.24 × 10^−10 m^2/sec; in series [1] (setting [7]), 4.96 × 10^−10 m^2/sec. Besides, the “Diffusion coefficient of the component” value in series [1] (setting [6]) is recorded as 4.82 × 10^−10 m^2/sec; in series [1] (setting [8]), 5.43 × 10^−10 m^2/sec.

As for `CC(C)(C)c1cc(O)ccc1O` [TBHQ], the “Appearance of the system loaded” value in series [2] is listed as “classic milky emulsion”.

Take `O` [Water, water]: the “Diffusion coefficient of the component” value in series [1] (setting [3]) is on record as 1.37 × 10^−9 m^2/sec; in series [1] (B6A microemulsion, Unloaded) it was 1.76 × 10^−9 m^2/sec; in series [1] (setting [4]), 1.62 × 10^−9 m^2/sec; in series [1] (B9A microemulsion, Unloaded) it was 1.52 × 10^−9 m^2/sec; in series [1] (setting [5]) it was 1.12 × 10^−9 m^2/sec; in series [1] (setting [7]), 1.86 × 10^−9 m^2/sec. In addition, the “Diffusion coefficient of the component” value is 1.24 × 10^−9 m^2/sec in series [1] (setting [6]) and 1.91 × 10^−9 m^2/sec in series [1] (setting [8]).

As to `CC(C)c1ccc(O)c(C(C)C)c1` [drawing 3], in series [1], the “Diffusion coefficient of EtOH” value is given as 96.6 ×10^−11 m^2/sec, the “Diffusion coefficient of PEG400” value was 26.3 ×10^−11 m^2/sec, the “Diffusion coefficient of PG” value is 73.6 ×10^−11 m^2/sec and the “Diffusion coefficient of Solutol” value was 1.63 ×10^−11 m^2/sec. In series [1], the “Diffusion coefficient of the Loaded specie” value is given as 1.75 ×10^−11 m^2/sec.

Take `COc1ccc(O)c(C(C)(C)C)c1` [drawing 4]: in series [1], the “Diffusion coefficient of EtOH” value is on record as 91.2 ×10^−11 m^2/sec, the “Diffusion coefficient of PEG400” value is 24.5 ×10^−11 m^2/sec, the “Diffusion coefficient of PG” value is 78.3 ×10^−11 m^2/sec and the “Diffusion coefficient of Solutol” value was 1.75 ×10^−11 m^2/sec. Further, the “Diffusion coefficient of the Loaded specie” value in series [1] is reported as 1.78 ×10^−11 m^2/sec.

For `Cc1cc(C(C)(C)C)c(O)c(C(C)(C)C)c1` [drawing 5], in series [1], the “Diffusion coefficient of EtOH” value is on record as 98.2 ×10^−11 m^2/sec, the “Diffusion coefficient of PEG400” value was 24.3 ×10^−11 m^2/sec, the “Diffusion coefficient of PG” value was 79.1 ×10^−11 m^2/sec and the “Diffusion coefficient of Solutol” value is 1.75 ×10^−11 m^2/sec. Moreover, the “Diffusion coefficient of the Loaded specie” value in series [1] was 1.58 ×10^−11 m^2/sec.

With “polyethylene glycol 15-hydroxystearate [Solutol]”, the “Diffusion coefficient of the component” value is recorded as 1.62 × 10^−11 m^2/sec in series [1] (setting [3]); 1.45 × 10^−11 m^2/sec in series [1] (B6A microemulsion, Unloaded); 1.50 × 10^−11 m^2/sec in series [1] (setting [4]); 1.94 × 10^−11 m^2/sec in series [1] (B9A microemulsion, Unloaded).

In the case of polysorbate 60 [Tween 60], the “Diffusion coefficient of the component” value in series [1] (setting [5]) is 1.63 × 10^−11 m^2/sec; in series [1] (setting [7]), 0.92 × 10^−11 m^2/sec.

As to polysorbate 80 [Tween 80], the “Diffusion coefficient of the component” value is recorded as 2.08 × 10^−11 m^2/sec in series [1] (setting [6]) and 1.73 × 10^−11 m^2/sec in series [1] (setting [8]).
